Measured values: ChEMBL document CHEMBL1177655, “Synthesis and inhibitory activities of novel C-3 substituted azafagomines: a new type of selective inhibitors of α-L-fucosidases” (Bioorg Med Chem, 2010)
Calls of active or inactive are those of the source. No cut-off for these calls is given here.

Columns and labels:
Saccharomyces cerevisiae [1] = experiment: Inhibition of yeast maltase at 1 mM
Aspergillus niger [2] = experiment: Inhibition of Aspergillus niger amyloglucosidase at 1 mM
Prunus dulcis [3] = experiment: Inhibition of almond beta glucosidase at 1 mM
[4] = target: Beta-galactosidase (Escherichia coli K-12) (UniProt P00722); experiment: Inhibition of Escherichia coli beta galactosidase at 1 mM
Beta-galactosidase (Escherichia coli K-12), sequence (P00722 whole entry): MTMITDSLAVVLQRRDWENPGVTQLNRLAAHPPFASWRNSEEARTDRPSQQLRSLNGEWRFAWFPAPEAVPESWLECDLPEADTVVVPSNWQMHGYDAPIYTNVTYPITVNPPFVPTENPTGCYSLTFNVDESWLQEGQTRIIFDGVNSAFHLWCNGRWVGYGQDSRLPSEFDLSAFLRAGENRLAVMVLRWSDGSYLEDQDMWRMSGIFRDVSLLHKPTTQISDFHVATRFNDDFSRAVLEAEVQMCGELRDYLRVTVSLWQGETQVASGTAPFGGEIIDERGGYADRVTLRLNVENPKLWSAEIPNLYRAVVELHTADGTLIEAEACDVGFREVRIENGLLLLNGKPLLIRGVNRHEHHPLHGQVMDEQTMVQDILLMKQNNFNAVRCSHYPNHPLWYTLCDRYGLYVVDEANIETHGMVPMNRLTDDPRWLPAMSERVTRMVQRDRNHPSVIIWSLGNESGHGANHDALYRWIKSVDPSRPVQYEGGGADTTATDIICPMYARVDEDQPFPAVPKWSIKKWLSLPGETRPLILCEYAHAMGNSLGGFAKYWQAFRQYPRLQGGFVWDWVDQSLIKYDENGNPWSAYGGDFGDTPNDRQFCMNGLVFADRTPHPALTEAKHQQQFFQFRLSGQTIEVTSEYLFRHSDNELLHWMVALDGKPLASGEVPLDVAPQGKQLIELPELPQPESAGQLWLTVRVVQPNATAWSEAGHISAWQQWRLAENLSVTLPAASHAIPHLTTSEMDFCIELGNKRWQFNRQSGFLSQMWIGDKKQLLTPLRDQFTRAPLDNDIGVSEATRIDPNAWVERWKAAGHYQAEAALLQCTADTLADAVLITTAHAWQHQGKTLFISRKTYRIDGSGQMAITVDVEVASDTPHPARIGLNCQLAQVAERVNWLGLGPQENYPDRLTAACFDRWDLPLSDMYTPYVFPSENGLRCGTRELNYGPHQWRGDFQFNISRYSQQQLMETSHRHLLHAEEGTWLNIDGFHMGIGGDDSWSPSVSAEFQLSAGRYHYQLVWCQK

[5] = target: T1, Tissue alpha-L-fucosidase (Bos taurus) (UniProt Q2KIM0); experiment: Inhibition of bovine kidney alpha L-fucosidase at 1 mM
T1 sequence (whole entry): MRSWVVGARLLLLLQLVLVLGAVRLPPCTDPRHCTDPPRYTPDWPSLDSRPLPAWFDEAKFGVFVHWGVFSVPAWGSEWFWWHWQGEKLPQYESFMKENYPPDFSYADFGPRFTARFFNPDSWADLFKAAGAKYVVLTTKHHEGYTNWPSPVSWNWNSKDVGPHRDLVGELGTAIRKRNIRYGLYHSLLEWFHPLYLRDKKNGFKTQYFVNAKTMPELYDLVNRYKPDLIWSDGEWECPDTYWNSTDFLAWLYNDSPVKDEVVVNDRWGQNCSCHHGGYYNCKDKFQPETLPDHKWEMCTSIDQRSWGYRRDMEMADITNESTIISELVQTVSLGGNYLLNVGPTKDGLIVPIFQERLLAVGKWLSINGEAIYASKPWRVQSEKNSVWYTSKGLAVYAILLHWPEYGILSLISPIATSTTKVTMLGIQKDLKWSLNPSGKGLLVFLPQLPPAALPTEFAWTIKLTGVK

[6] = target: T2, Tissue alpha-L-fucosidase (Bos taurus, UniProt Q2KIM0); experiment: Inhibition of bovine kidney alpha L-fucosidase
T2 sequence (Q2KIM0 whole entry): T1 sequence (whole entry)

[7] = target: T1, Tissue alpha-L-fucosidase (Bos taurus); experiment: Inhibition of bovine kidney alpha L-fucosidase at 0.1 mM
Saccharomyces cerevisiae [8] = experiment: Inhibition of yeast maltase at 0.1 mM
[9] = target: Beta-galactosidase (Escherichia coli K-12) (UniProt P00722); experiment: Inhibition of Escherichia coli beta galactosidase at 0.1 mM
Aspergillus niger [10] = experiment: Inhibition of Aspergillus niger amyloglucosidase at 0.1 mM
Prunus dulcis [11] = experiment: Inhibition of almond beta glucosidase at 0.1 mM

Row | SMILES | inhibition (Saccharomyces cerevisiae [1]) | inhibition (Aspergillus niger [2]) | inhibition (Prunus dulcis [3]) | inhibition [4] | inhibition [5] | IC50 [6] [µM] | inhibition [7] | inhibition (Saccharomyces cerevisiae [8]) | inhibition [9] | inhibition (Aspergillus niger [10]) | inhibition (Prunus dulcis [11]) | Ki [6] [µM]
1 | C[C@@H]1[C@@H](O)[C@@H](O)[C@H](CO)NN1C(=O)OCc1ccccc1 | inactive | inactive | inactive | inactive | 27% |  |  |  |  |  |  | 
2 | C[C@@H]1NN[C@@H](CNC(=O)[C@@H](N)Cc2ccccc2)[C@H](O)[C@@H]1O | inactive | inactive | inactive | inactive | 82% | 283 |  |  |  |  |  | 
3 | CCCCCCCCCCCC(=O)NC[C@@H]1NN[C@H](C)[C@@H](O)[C@H]1O | inactive | 24% | inactive | inactive | 40% |  |  |  |  |  |  | 
4 | C[C@@H]1NN[C@@H](CN)[C@H](O)[C@@H]1O | inactive | inactive | inactive | inactive | 44% |  |  |  |  |  |  | 
5 | C[C@H]1NN[C@@H](CO)[C@H](O)[C@@H]1O | inactive | inactive | 23% | inactive | 17% |  |  |  |  |  |  | 
6 | CCCCCCCCCCCC(=O)NC[C@@H]1NN(C(=O)OCc2ccccc2)[C@@H](C)[C@@H](O)[C@H]1O | inactive | inactive | inactive | inactive |  |  | 5% |  |  |  |  | 
7 | C[C@@H]1[C@@H](O)[C@@H](O)[C@H](CNC(=O)[C@@H](N)Cc2ccccc2)NN1C(=O)OCc1ccccc1 | inactive | inactive | inactive | inactive | 16% |  |  |  |  |  |  | 
8 | C[C@@H]1[C@@H](O)[C@@H](O)[C@H](CNC(=O)c2ccc(-c3ccccc3)cc2)NN1C(=O)OCc1ccccc1 |  |  |  |  |  |  | inactive | inactive | inactive | inactive | inactive | 
9 | C[C@H]1NN[C@@H](CNC(=O)[C@@H](N)Cc2ccccc2)[C@H](O)[C@@H]1O | inactive | inactive | inactive | inactive | inactive |  |  |  |  |  |  | 
10 | C[C@H]1[C@@H](O)[C@@H](O)[C@H](CNC(=O)[C@@H](N)CCCCN)NN1C(=O)OCc1ccccc1 | inactive | inactive | inactive | inactive | 77% |  |  |  |  |  |  | 
11 | C[C@@H]1[C@@H](O)[C@@H](O)[C@H](CN)NN1C(=O)OCc1ccccc1 | inactive | inactive | inactive | inactive | 54% |  |  |  |  |  |  | 
12 | C[C@H]1NN[C@@H](CN)[C@H](O)[C@@H]1O | inactive | inactive | inactive | inactive | 53% |  |  |  |  |  |  | 
13 | C[C@H]1[C@@H](O)[C@@H](O)[C@H](CNC(=O)[C@@H](N)Cc2ccccc2)NN1C(=O)OCc1ccccc1 | inactive | inactive | inactive | inactive | 65% |  |  |  |  |  |  | 
14 | C[C@@H]1NN[C@@H](CO)[C@H](O)[C@@H]1O | inactive | inactive | inactive | inactive | 97% | 30 |  |  |  |  |  | 4.2
15 | C[C@H]1[C@@H](O)[C@@H](O)[C@H](CO)NN1C(=O)OCc1ccccc1 | inactive | inactive | inactive | inactive | 35% |  |  |  |  |  |  | 
16 | C[C@@H]1NN[C@@H](CNC(=O)c2ccc(-c3ccccc3)cc2)[C@H](O)[C@@H]1O |  |  |  |  |  | 8.6 | 85% | inactive | inactive | 21% | inactive | 1
17 | CCCCCCCCCCCC(=O)NC[C@@H]1NN[C@@H](C)[C@@H](O)[C@H]1O | 51% | inactive | inactive | inactive | 70% |  |  |  |  |  |  | 
18 | C[C@H]1[C@@H](O)[C@@H](O)[C@H](CN)NN1C(=O)OCc1ccccc1 | inactive | inactive | inactive | 32% | 92% | 117 |  |  |  |  |  | 
19 | C[C@@H]1NN[C@@H](CNC(=O)[C@@H](N)CCCCN)[C@H](O)[C@@H]1O | inactive | inactive | inactive | inactive | 77% | 535 |  |  |  |  |  | 
20 | C[C@H]1NN[C@@H](CNC(=O)c2ccc(-c3ccccc3)cc2)[C@H](O)[C@@H]1O | inactive | inactive | inactive | inactive | 53% |  |  |  |  |  |  | 
